Assay results: patent US20070212712A1, “Methods for identifying modulators of hedgehog autoprocessing” (priority 2005, published 2007)

System: Shh-N signaling
Experiment: Autoprocessing-independent Shh-N signaling assay (Gli-luciferase, control)
Format: cell-based, mouse
Details: 1 μM KAAD-cyclopamine
Description: This cell-based assay (FIGS. 1A and 1B) made use of Hh-responsive 3T3 mouse cells stably transfected with a Shh plasmid expressing full length Shh protein that undergoes autoprocessing to produce functionally active Shh protein. Cells incubated with pre-spliced N-Shh protein were used as a control. Shh signaling was assayed in control and treated cells using with dual luciferase reporter assay of luciferase activity expressed from an integrated copy of a Gli-luciferase reporter gene linked to of 8 tandem repeats of Gli transcription factor-binding sites, normalized to activity of a Renilla gene under the control of minimum TK promoter, to monitor toxicity and cell survival. Inhibition was confirmed by Western blot analysis of Hh autoprocessing (FIG. 2). Additional cell-based assays for testing the activities of candidate Hh autoprocessing inhibitors in blocking full-length Hh signaling include the measurement of Hh target gene expression (Patched, Gli , IGF2, N-myc; for example, via a luciferase-based assay) and chondrocyte differentiation of 10T½ cells. Persons skilled in the art will note that the above assays are also suitable for use in a cell-free assay system.

CC1=C2C[C@H]3[C@@H](CC=C4CC(=O)CC[C@@]43C)[C@@H]2CC[C@]12O[C@@H]1C[C@H](C)CN(CCNC(=O)CCCCCNC(=O)CCc3ccccc3)[C@H]1[C@H]2C [KAAD-cyclopamine]
Effect on Gli-luciferase activity in response to Shh-N: inhibited Gli-luciferase activity
